Results taken from ChEMBL document CHEMBL5376018 (RSC Med Chem, 2024).

Columns and labels:
rhinovirus A21 = test: Antiviral activity against Human rhinovirus A21 infected in human H1-HeLa cells incubated for 3 days measured by crystal violet staining based plaque counting analysis; details: Rhinovirus A, 72 h
[1] = Selectivity index, ratio of CC50 for cytotoxicity against human H1-HeLa cells infected with 1 MOI human rhinovirus 14 to EC50 for antiviral activity against Human rhinovirus 14 infected in human H1-HeLa cells; type: toxicity, cell-based; details: H1-HeLa cells infected with human rhinovirus 14, read-out: Ratio CC50/EC50
rhinovirus B14 = test: Antiviral activity against Human rhinovirus 14 infected in human H1-HeLa cells incubated for 3 days measured by crystal violet staining based plaque counting analysis; details: Rhinovirus B, 72 h
[2] = Selectivity index, ratio of CC50 for cytotoxicity against human H1-HeLa cells infected with 1 MOI human rhinovirus 16 to EC50 for antiviral activity against Human rhinovirus 16 infected in human H1-HeLa cells; type: toxicity, cell-based; details: H1-HeLa cells infected with human rhinovirus 16, read-out: Ratio CC50/EC50
[3] = Selectivity index, ratio of CC50 for cytotoxicity against human H1-HeLa cells infected with 1 MOI human rhinovirus 21 to EC50 for antiviral activity against Human rhinovirus 21 infected in human H1-HeLa cells; type: toxicity, cell-based; details: H1-HeLa cells infected with human rhinovirus 21, read-out: Ratio CC50/EC50
rhinovirus A16 = test: Antiviral activity against Human rhinovirus 16 infected in human H1-HeLa cells incubated for 3 days measured by crystal violet staining based plaque counting analysis; details: Rhinovirus A, 72 h
H1-HeLa = test: cells; details: Homo sapiens, 1 h

| Structure (SMILES) | EC50 (rhinovirus A21) | selectivity ratio [1] | EC50 (rhinovirus B14) | selectivity ratio [2] | selectivity ratio [3] | EC50 (rhinovirus A16) | CC50 (H1-HeLa) |
| --- | --- | --- | --- | --- | --- | --- | --- |
| CC(=O)Nc1nc(C)c(-c2ccc(Cl)c(S(=O)(=O)NCCO)c2)s1 | 1600 nM | 21 | 770 nM | 19 | 10 | 840 nM | 15800 nM |
| CCOC(=O)/C=C/[C@H](C[C@@H]1CCNC1=O)NC(=O)[C@@H](CC(=O)[C@@H](NC(=O)c1cc(C)on1)C(C)C)Cc1ccc(F)cc1 | 95 nM |  | 58 nM |  |  | 80 nM | > 100000 nM |
| COCCNS(=O)(=O)c1cc(-c2sc(NC(=O)C(C)(C)C)nc2C)ccc1OC | 1500 nM | > 15 | 1300 nM | > 25 | > 13 | 790 nM | > 20000 nM |
| COc1ccc(-c2sc(NC(=O)C(C)(C)C)nc2C)cc1S(=O)(=O)NCCNC(C)=O | 9100 nM | > 5 | 4400 nM | > 6 | > 2 | 3300 nM | > 20000 nM |
| COc1ccc(-c2sc(NC(C)=O)nc2C)cc1S(=O)(=O)CCN1CCOCC1 | 3200 nM | > 14 | 1400 nM | > 15 | > 6 | 1300 nM | > 20000 nM |
| COc1ccc(-c2sc(NC(=O)C(C)(C)C)nc2C)cc1S(=O)(=O)CCc1ccncc1 | 1700 nM | > 10 | 1300 nM | > 13 | > 7 | 1000 nM | 12500 nM |
| COc1ccc(-c2sc(NC(=O)C(C)(C)C)nc2C)cc1S(=O)(=O)NCc1cccc(S(C)(=O)=O)c1 | 4500 nM | > 5 | 3800 nM | > 10 | > 4 | 2000 nM | > 20000 nM |
| COc1ccc(-c2sc(NC(=O)C(C)(C)C)nc2C)cc1S(=O)(=O)NCCN1CCOCC1 | 1800 nM | > 20 | 1000 nM | > 36 | > 11 | 560 nM | > 20000 nM |
| COc1ccc(-c2sc(NC(C)=O)nc2C)cc1 | 17700 nM | > 1 | 14500 nM | > 2 | > 1 | 12000 nM | > 20000 nM |
